Read-outs that look alike come from different tables or passages of the source.

Common to all, as to type: cell-based
One series addresses T1, OATP1B1 (Homo sapiens, UniProt Q9Y6L6).
T1 construct: expressed in transfected cells; host or cells: CHO
T1 sequence (Q9Y6L6 1-691): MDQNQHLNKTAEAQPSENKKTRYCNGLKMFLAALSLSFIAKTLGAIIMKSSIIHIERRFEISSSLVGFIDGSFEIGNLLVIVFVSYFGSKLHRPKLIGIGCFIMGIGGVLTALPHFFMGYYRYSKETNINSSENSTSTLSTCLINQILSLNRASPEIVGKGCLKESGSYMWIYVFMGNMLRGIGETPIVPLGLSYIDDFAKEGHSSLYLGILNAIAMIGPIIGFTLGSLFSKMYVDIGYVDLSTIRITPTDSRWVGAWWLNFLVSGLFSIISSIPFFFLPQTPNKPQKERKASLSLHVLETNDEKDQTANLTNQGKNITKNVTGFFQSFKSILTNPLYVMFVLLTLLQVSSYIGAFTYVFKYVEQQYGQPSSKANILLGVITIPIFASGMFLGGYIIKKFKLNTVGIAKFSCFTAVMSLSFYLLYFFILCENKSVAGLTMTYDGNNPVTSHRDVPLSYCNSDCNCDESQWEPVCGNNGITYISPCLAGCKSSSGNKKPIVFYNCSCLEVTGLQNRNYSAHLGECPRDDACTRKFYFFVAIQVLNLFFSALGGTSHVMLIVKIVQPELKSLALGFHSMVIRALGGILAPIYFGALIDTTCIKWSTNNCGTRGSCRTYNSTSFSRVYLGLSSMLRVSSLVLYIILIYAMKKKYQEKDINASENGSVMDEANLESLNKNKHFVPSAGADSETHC
Put plainly: OATP1B1 activity: E3S accumulation in CHO-OATP1B1 cells. Particulars: for inhibition at 100 μM: human, pH 7.4. As for the experimental part:
(§1) The initial tested concentration of pyrethroids was 100 μM.

A further series has as its target T2, MATE1 (Homo sapiens, UniProt Q96FL8).
T2 construct: host or cells: HEK293
T2 sequence (Q96FL8 1-570): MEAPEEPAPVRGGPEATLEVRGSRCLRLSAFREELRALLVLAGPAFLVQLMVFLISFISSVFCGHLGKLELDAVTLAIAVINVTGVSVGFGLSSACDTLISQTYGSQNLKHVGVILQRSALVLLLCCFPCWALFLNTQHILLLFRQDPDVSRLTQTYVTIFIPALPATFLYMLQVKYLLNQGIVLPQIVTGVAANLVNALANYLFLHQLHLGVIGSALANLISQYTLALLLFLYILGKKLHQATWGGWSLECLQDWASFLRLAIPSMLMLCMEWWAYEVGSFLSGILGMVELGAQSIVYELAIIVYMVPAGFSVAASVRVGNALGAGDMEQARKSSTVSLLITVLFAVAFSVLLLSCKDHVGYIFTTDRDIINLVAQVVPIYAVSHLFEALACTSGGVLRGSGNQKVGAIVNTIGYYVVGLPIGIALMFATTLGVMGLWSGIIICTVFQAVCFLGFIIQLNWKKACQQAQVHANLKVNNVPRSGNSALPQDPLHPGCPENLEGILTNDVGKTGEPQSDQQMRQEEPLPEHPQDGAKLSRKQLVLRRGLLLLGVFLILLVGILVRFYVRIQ
The series is described as follows: MATE1 activity: TEA accumulation in HEK-MATE1 cells. Particulars: for inhibition at 100 μM: human, pH 8.4. How it is done: as §1

A further series deals with T3, MATE2-K (Homo sapiens, UniProt Q86VL8).
T3 construct: expressed in transfected cells; host or cells: HEK293
Put plainly: MATE2-K activity: TEA accumulation in HEK-MATE2-K cells.

For series [1], the target named is T4, OCT1 (Homo sapiens, UniProt O15245).
T4 sequence (O15245 1-554): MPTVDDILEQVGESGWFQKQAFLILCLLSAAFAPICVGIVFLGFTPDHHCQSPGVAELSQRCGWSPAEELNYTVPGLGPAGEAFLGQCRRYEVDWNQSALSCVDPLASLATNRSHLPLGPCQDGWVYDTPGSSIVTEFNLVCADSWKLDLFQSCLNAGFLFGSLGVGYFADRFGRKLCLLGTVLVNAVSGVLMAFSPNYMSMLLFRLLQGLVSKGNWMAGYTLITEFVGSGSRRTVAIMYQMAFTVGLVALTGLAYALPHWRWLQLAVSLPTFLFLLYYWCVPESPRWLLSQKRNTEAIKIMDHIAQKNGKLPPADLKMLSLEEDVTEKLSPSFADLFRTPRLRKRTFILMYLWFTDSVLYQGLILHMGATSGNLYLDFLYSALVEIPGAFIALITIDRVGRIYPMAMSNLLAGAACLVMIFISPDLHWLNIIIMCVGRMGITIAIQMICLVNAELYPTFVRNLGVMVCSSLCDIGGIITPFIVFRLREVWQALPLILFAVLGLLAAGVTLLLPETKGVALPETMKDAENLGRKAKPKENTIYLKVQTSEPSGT
The series is described as follows: Dopamine accumulation in OCT1-transfected HEK293 cells. As for the experimental part: HEK-MOCK and HEK-OCT1 cells were incubated with transport assay medium containing 11 nM 3,4-[Ring-2,5,6-^3H]-dopamine, in the absence or presence of the reference OCT1 inhibitor verapamil or of pyrethroids for 5 min at 37°C in the transport assay medium described above. After washing twice with PBS, cells were lysed in distilled water and intracellular accumulation of dopamine was finally measured by scintillation counting.
(A) HEK-OCT1 and HEK-MOCK cells were incubated with 11 nM 3,4-[Ring-2,5,6-^3H]-dopamine in the absence or presence of the reference OCT1 inhibitor verapamil (100 μM) for 5 min at 37°C. Intracellular accumulation of 3,4-[Ring-2,5,6-^3H]-dopamine was then determined by scintillation counting. […] Intracellular accumulation of 3,4-[Ring-2,5,6-^3H]-dopamine was then determined by scintillation counting. Data are expressed as percentages of OCT1-mediated transport of dopamine in control pyrethroid-unexposed cells, determined by subtracting accumulation of dopamine in HEK-MOCK cells from that in HEK-OCT1 cells in the absence of pyrethroids, arbitrarily set at 100% and indicated by a dotted line on the graph.

The target in series [2] is T4, OCT1. Put plainly: Trans-stimulation assay of TEA uptake in OCT1-transfected HEK293 cells. Particulars: pre-loading 60 min with 100 μM pyrethroid or 2 mM unlabeled TEA; HEK-OCT1 cells. How it is done: Trans-stimulation assays were performed as previously described. Briefly, OCT1-transfected HEK293 cells were first preloaded with 2 mM unlabeled TEA or 100 μM pyrethroid for 60 min at 37°c in the transport assay medium described above. After washing twice with PBS, cells were next re-incubated in transport assay medium containing 29 μM [1-^14C]-TEA for 5 min at 37°C. After washing twice with PBS, cells were lysed in distilled water and intracellular accumulation of [1-^14C]-TEA was then determined by scintillation counting.
Intracellular accumulation of TEA was then determined by scintillation counting. […] After washing, cells were next re-incubated with 29 μM [1-^14C]-TEA for 5 min at 37°C. Intracellular accumulation of [1-^14C]-TEA was then determined by scintillation counting.

T3 sequence (Q86VL8 1-566 isoform Q86VL8-3): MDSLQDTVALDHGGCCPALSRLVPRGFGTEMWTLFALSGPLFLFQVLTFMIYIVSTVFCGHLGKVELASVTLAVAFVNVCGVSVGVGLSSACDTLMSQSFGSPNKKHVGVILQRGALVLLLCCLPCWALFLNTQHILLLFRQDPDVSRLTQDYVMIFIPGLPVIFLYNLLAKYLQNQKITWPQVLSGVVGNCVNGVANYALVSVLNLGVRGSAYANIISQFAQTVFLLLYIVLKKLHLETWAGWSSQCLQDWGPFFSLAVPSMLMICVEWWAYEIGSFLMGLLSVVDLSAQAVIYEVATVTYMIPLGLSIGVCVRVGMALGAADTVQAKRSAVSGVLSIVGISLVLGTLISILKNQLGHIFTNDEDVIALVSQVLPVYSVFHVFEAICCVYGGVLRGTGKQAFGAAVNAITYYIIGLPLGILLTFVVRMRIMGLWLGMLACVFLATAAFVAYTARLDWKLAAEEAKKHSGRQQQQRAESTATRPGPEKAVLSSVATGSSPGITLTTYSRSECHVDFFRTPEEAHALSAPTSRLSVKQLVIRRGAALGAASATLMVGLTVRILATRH
Procedure for MATE2-K: The effects of pyrethroids on activity of ABC and SLC transporters were determined through measuring cellular accumulation or retention of fluorescent or radiolabeled reference substrates for transporters, in the presence or absence of reference inhibitors, as previously described [41].
For accumulation assays (performed for all transporters, excepted BCRP), transporter-expressing cells usually cultured in 48-well plates were first incubated at 37°C with reference substrates in the absence (control) or presence of pyrethroids or reference inhibitors, in a well-defined transport assay medium [42], consisting of 136 mM NaCl, 5.3 mM KCl, 1.1mM KH2PO4, 0.8 mM MgSO4, 1.8 mM CaCl2, 10 mM HEPES, 11 mM D-glucose and adjusted to pH = 7.4 (excepted for MATE transporter assays, for which pH was set to 8.4). The nature of substrates and reference inhibitors and the incubation times with substrates, that varied according to the transporter, were selected in agreement with previous studies [41, 43] and are indicated in S3 Table. The total incubation volume with substrates was 200 μL/well. After washing twice in phosphate-buffered saline (PBS) (200 μL/well/washing), cells were lysed in distilled water (155 μL/well). An aliquot of cell lysate (5 μL) was then taken for determining cellular protein content by the Bradford method [44]. The rest of lysate (150 μL/well) was used for measuring intracellular accumulation of reference substrates by scintillation counting or spectrofluorimetry using a SpectraMax Gemini SX spectrofluorometer (Molecular Devices, Sunnyvale, CA, USA) (excitation and emission wavelengths were 485 and 535 nm, respectively, for rhodamine 123 and fluorescein, and 355 and 460 nm, respectively, for DAPI).
Intracellular concentrations of reference substrates were initially expressed as fluorescence arbitrary units (for fluorescent dye substrates) or as moles (for radiolabeled substrates) and normalized to cellular protein content, determined by the Bradford method [44]. […]

In the case of `C=CCC1=C(C)C(OC(=O)C2C(C=C(C)C)C2(C)C)CC1=O` (stereo not drawn) [allethrin], the IC50 on OATP1B1 was determined as 16.5 µM; at MATE1, 50.2 µM. The inhibition at 100 μM against OATP1B1 was above 85%; against MATE1, above 79%. Further, the “effect on MATE2-K activity” value on MATE2-K (pyrethroid up to 100 μM, HEK-MATE2-K cells, TEA) was “failed to alter”; on MATE2-K (pyrethroid up to 100 μM, HEK-MATE2-K cells, TEA, listed as Allethrin) it was “No effect (up to 100 μM)”. On OCT1 [1] (pyrethroid 10, 100 or 300 μM, 11 nM dopamine, 5 min), the “effect on OCT1-mediated transport of dopamine” value is “significantly inhibit”. Besides, the “effect of pre-loading on radiolabeled TEA uptake (trans-stimulation assay)” value at OCT1 [2] is “trans-inhibition”.
Consider `CC(C)=CC1C(C(=O)OCN2C(=O)C3=C(CCCC3)C2=O)C1(C)C` (stereo not drawn) [tetramethrin], for which the IC50 at OATP1B1 worked out at 5.7 µM; at MATE1, 47.5 µM. Further, the inhibition at 100 μM was above 85% at OATP1B1 (pyrethroid 100 μM, CHO-OATP1B1 cells, E3S, read-out: inhibition of OATP1B1 activity) and above 79% at MATE1 (pyrethroid 100 μM, HEK-MATE1 cells, TEA, read-out: inhibition of MATE1 activity). The “effect on MATE2-K activity” value at MATE2-K is recorded as “No effect (up to 100 μM)”. Also, the “effect on OCT1-mediated dopamine uptake” value at OCT1 [1] (pyrethroid 10 μM) is “failed to significantly alter”. Moreover, the “effect of pre-loading on radiolabeled TEA uptake (trans-stimulation assay)” value on OCT1 [2] is “trans-inhibition”.

The term IC50 denotes the concentration that inhibits the measured activity by half. One may read the inhibition as the percentage by which the read-out fell short of the control.

Values taken from article PMC5242521 (PLoS ONE, 2017).
